Source: patent US11236121B2, “Crystalline 19-nor C3,3-disubstituted C21-N-pyrazolyl steroid” (priority 2016, dated 2022)
≈ marks a conversion by molar mass, not a printed value. Entries after “also recorded” stand apart in the source; their conditions may differ. Read-outs that look alike come from different tables or passages of the source.

What was measured:
[1] = Hygroscopicity by dynamic vapor sorption (DVS); type: physicochemical; conditions: for water uptake at 80% RH / water uptake at 95% RH: DVS isotherm; for water uptake at 80% RH / water uptake at 95% RH / form change before and after DVS (XRPD) / hygroscopicity: 25° C.; for form change before and after DVS (XRPD) / hygroscopicity / water uptake at RH less than or equal to 95%: DVS; for water uptake at RH less than or equal to 95%: RH less than or equal to 95% (description section)
Protocol: Dynamic vapor sorption (DVS) was measured via an SMS (Surface Measurement Systems) DVS Intrinsic system. The relative humidity at 25° C. was calibrated against the deliquescence point of LiCl, Mg(NO3)2, and KCl.
The hygroscopicity of Form A, Form C, and Form K were investigated at 25° C. using DVS. The XRPD patterns of each sample before and after DVS were compared in order to investigate any potential form change.

[2] = Equilibrium solubility of Forms A, C and P in ethyl acetate; type: physicochemical
Protocol: (§1) Solubility profiles of Forms A, C and P across a range of temperature can give an indication of the relative stability of different forms within different temperature ranges. Sufficient equilibrium solubility data were collected experimentally covering 5-70° C.

[3] = Crystal form and relative stability of slurried solids in EtOAc, checked by XRPD; type: physicochemical; conditions: for Crystal Form Checked by XRPD: ethyl acetate
Protocol: During solubility measurements, an XRPD pattern was detected in (a) slurries of Form A in EtOAc at 5° C. (after 1 h) and 20° C. (after 2 days), (b) slurries of Form C in EtOAc at 5° C. (after 1 h) and 20° C. (after 7 days). There was no direct match of this solid form's XRPD pattern to other crystal forms of Compound 1.
as §1

[4] = type: physicochemical
Protocol: In each experiment, approximately 10 to 20 mg of Form A was suspended in 0.5 mL of a solvent or mixture of solvents. After stirring at RT or 50° C. for 48 hours, the solids were isolated by centrifugation for analysis (wet sample). If the suspensions turned into clear solution, the clear solutions were kept at ambient conditions for slow evaporation.
In one embodiment, the inter-conversion between Forms A, C and K can be studied in a series of slurry conversion experiments conducted in ethyl acetate, n-butanol, and methyl tert-butyl ether (MBTE) at both room temperature (RT) and 50° C. Compound 1 can display moderate solubility, and may yield solvated forms during these screening experiments. The transition temperature between Forms A and C was estimated to be ˜17° C., and the transition temperature between Forms K and C was above 100° C.

[5] = type: physicochemical; conditions: for stability of the crystalline form in words: XRPD, ambient conditions
Protocol: A PANalytical Empyrean X-ray powder diffractometer with a 12-well auto-sampler stage was used for analysis throughout this study. Resolution calibration of the instrument was performed every 6 months, and sensitivity measurements were performed after the sample stage was changed. A silicon (Si) pressed powder sample was used as the reference standard.
The wet cake of Form P (˜5 min air) was dried in two ways: (a) under air at room temperature overnight, and (b) under vacuum at 40° C. for 3 hours. Both dried cakes were analyzed by XRPD, 1H-NMR, and TGA.

C[C@@]1(O)CC[C@H]2[C@H](CC[C@@H]3[C@@H]2CC[C@]2(C)[C@@H](C(=O)Cn4cc(C#N)cn4)CC[C@@H]32)C1 [Form A]
water uptake at 80% RH [1]: 0.06 % by weight
water uptake at 95% RH [1]: less than 0.12 % by weight
form change before and after DVS (XRPD) [1]: no form change
hygroscopicity [1]: non-hygroscopic
water uptake at RH less than or equal to 95% [1]: less than 0.30 weight percent
solubility at 2 day ([2]; 20 °C, organic solvent or mixture, thermodynamic from solid, equilibration 2 day): 12.4 mg/mL (≈ 30.3 mM)
solubility at 4 h ([2]; 30 °C, organic solvent or mixture, thermodynamic from solid, equilibration 4 h): 15.5 mg/mL (≈ 37.8 mM)
solubility at 7 h ([2]; 40 °C, organic solvent or mixture, thermodynamic from solid, equilibration 7 h): 18.8 mg/mL (≈ 45.9 mM)
solubility at 20 h ([2]; 50 °C, organic solvent or mixture, thermodynamic from solid, equilibration 20 h): 25 mg/mL (≈ 61 mM)
solubility at 4 h ([2]; 60 °C, organic solvent or mixture, thermodynamic from solid, equilibration 4 h): 31.7 mg/mL (≈ 77.4 mM)
solid form detected by XRPD in slurry in EtOAc ([3]; 5° C., after 1 h): Form P
solid form detected by XRPD in slurry in EtOAc ([3]; 20° C., after 2 days): Form P
Crystal Form Checked by XRPD ([3]; 20 ° C., 2 day): No Form Change
Crystal Form Checked by XRPD ([3]; 30 ° C., 4 h): No Form Change
Crystal Form Checked by XRPD ([3]; 40 ° C., 7 h): No Form Change
Crystal Form Checked by XRPD ([3]; 50 ° C., 20 h): No Form Change
Crystal Form Checked by XRPD ([3]; 60 ° C., 4 h): No Form Change

C[C@@]1(O)CC[C@H]2[C@H](CC[C@@H]3[C@@H]2CC[C@]2(C)[C@@H](C(=O)Cn4cc(C#N)cn4)CC[C@@H]32)C1 [Form C]
water uptake at 80% RH [1]: 0.12 % by weight
water uptake at 95% RH [1]: less than 0.30 % by weight
form change before and after DVS (XRPD) [1]: no form change
hygroscopicity [1]: non-hygroscopic
water uptake at RH less than or equal to 95% [1]: less than 0.32 weight percent
Solubility ([2]; 20 ° C., equilibration 2 day): 11.8 mg/mL (≈ 28.8 mM)
Solubility ([2]; 30 ° C., equilibration 4 h): 14.9 mg/mL (≈ 36.4 mM)
Solubility ([2]; 40 ° C., equilibration 7 h): 17.9 mg/mL (≈ 43.7 mM)
Solubility ([2]; 50 ° C., equilibration 20 h): 23.7 mg/mL (≈ 57.9 mM)
Solubility ([2]; 60 ° C., equilibration 4 h): 29.8 mg/mL (≈ 72.8 mM)
solid form detected by XRPD in slurry in EtOAc ([3]; 5° C., after 1 h): Form P
solid form detected by XRPD in slurry in EtOAc ([3]; 20° C., after 7 days): Form P
relative stability of forms ([3]; EtOAc, across the entire processing temperature range (5-70° C. data)): more stable than Form A
Crystal Form Checked by XRPD ([3]; 20 ° C., 2 day): No Form Change
Crystal Form Checked by XRPD ([3]; 30 ° C., 4 h): No Form Change
Crystal Form Checked by XRPD ([3]; 40 ° C., 7 h): No Form Change
Crystal Form Checked by XRPD ([3]; 50 ° C., 20 h): No Form Change
Crystal Form Checked by XRPD ([3]; 60 ° C., 4 h): No Form Change
transition temperature between Forms A and C ([4]; estimated from slurry conversion experiments): ~17 °C
transition temperature between Forms K and C ([4]; from slurry conversion experiments): above 100 °C
thermodynamic stability compared to Form A and Form K ([4]; slurry conversion in ethyl acetate, n-butanol or methyl tert-butyl ether, room temperature to 50° C.): more thermodynamically stable

C[C@@]1(O)CC[C@H]2[C@H](CC[C@@H]3[C@@H]2CC[C@]2(C)[C@@H](C(=O)Cn4cc(C#N)cn4)CC[C@@H]32)C1 [Form E]
form after drying (XRPD) ([5]; drying at ambient (room temperature) conditions): transformed to a mixture of Forms A and C that exhibited low crystallinity

C[C@@]1(O)CC[C@H]2[C@H](CC[C@@H]3[C@@H]2CC[C@]2(C)[C@@H](C(=O)Cn4cc(C#N)cn4)CC[C@@H]32)C1 [Form H]
stability of the crystalline form in words [5]: metastable

C[C@@]1(O)CC[C@H]2[C@H](CC[C@@H]3[C@@H]2CC[C@]2(C)[C@@H](C(=O)Cn4cc(C#N)cn4)CC[C@@H]32)C1 [Form I]
stability of the crystalline form in words [5]: metastable

C[C@@]1(O)CC[C@H]2[C@H](CC[C@@H]3[C@@H]2CC[C@]2(C)[C@@H](C(=O)Cn4cc(C#N)cn4)CC[C@@H]32)C1 [Form J]
stability of the crystalline form in words [5]: metastable
form after drying (XRPD) ([5]; drying at ambient conditions for 3 days): transforms to Form A

C[C@@]1(O)CC[C@H]2[C@H](CC[C@@H]3[C@@H]2CC[C@]2(C)[C@@H](C(=O)Cn4cc(C#N)cn4)CC[C@@H]32)C1 [Form K]
water uptake at 80% RH [1]: 0.18 % by weight
water uptake at 95% RH [1]: less than 0.35 % by weight
form change before and after DVS (XRPD) [1]: no form change
hygroscopicity [1]: non-hygroscopic
water uptake at RH less than or equal to 95% [1]: less than 0.35 weight percent

C[C@@]1(O)CC[C@H]2[C@H](CC[C@@H]3[C@@H]2CC[C@]2(C)[C@@H](C(=O)Cn4cc(C#N)cn4)CC[C@@H]32)C1 [Form L]
stability of the crystalline form in words [5]: metastable

C[C@@]1(O)CC[C@H]2[C@H](CC[C@@H]3[C@@H]2CC[C@]2(C)[C@@H](C(=O)Cn4cc(C#N)cn4)CC[C@@H]32)C1 [Form N]
form after storage (XRPD) ([5]; overnight, under ambient conditions): transforms to Form A

C[C@@]1(O)CC[C@H]2[C@H](CC[C@@H]3[C@@H]2CC[C@]2(C)[C@@H](C(=O)Cn4cc(C#N)cn4)CC[C@@H]32)C1 [Form P]
solubility at 20 h ([2]; 5 °C, organic solvent or mixture, thermodynamic from solid, equilibration 20 h): 5.4 mg/mL (≈ 13.2 mM)
solubility at 3 day ([2]; 10 °C, organic solvent or mixture, thermodynamic from solid, equilibration 3 day): 6.6 mg/mL (≈ 16.1 mM)
solubility at 2 day ([2]; 15 °C, organic solvent or mixture, thermodynamic from solid, equilibration 2 day): 8 mg/mL (≈ 19.5 mM)
Solubility ([2]; 20 ° C., equilibration 2 day): 11.4 mg/mL (≈ 27.8 mM)
solubility at 20 h ([2]; 25 °C, organic solvent or mixture, thermodynamic from solid, equilibration 20 h): 12.6 mg/mL (≈ 30.8 mM)
solubility at 20 h ([2]; 30 °C, organic solvent or mixture, thermodynamic from solid, equilibration 20 h): 13.5 mg/mL (≈ 33 mM)
relative stability of forms ([3]; EtOAc, ≤20° C.): more stable than both Forms A and C; also recorded: more stable than Form C
stability in EtOAc ([3]; EtOAc, ≥35° C.): converts to Form A
Crystal Form Checked by XRPD ([3]; 5 ° C., 20 h): Form P
Crystal Form Checked by XRPD ([3]; 10 ° C., 3 day): Form P
Crystal Form Checked by XRPD ([3]; 15 ° C., 2 day): Form P
Crystal Form Checked by XRPD ([3]; 20 ° C., 2 day): No Form Change
Crystal Form Checked by XRPD ([3]; 25 ° C., 20 h): Form P
Crystal Form Checked by XRPD ([3]; 30 ° C., 20 h): Form P
Crystal Form Checked by XRPD ([3]; 40 ° C., 24 h): Form P to Form
XRPD pattern of dried cake ([5]; wet cake dried under air at room temperature overnight): conforming to Form P
XRPD pattern of dried cake ([5]; wet cake dried under vacuum at 40° C. for 3 hours): conforming to Form A

C[C@@]1(O)CC[C@H]2[C@H](CC[C@@H]3[C@@H]2CC[C@]2(C)[C@@H](C(=O)Cn4cc(C#N)cn4)CC[C@@H]32)C1 [Forms A and K (with Form C seeds)]
Final Form after slurry conversion ([4]; Ethyl acetate, RT): Form C

C[C@@]1(O)CC[C@H]2[C@H](CC[C@@H]3[C@@H]2CC[C@]2(C)[C@@H](C(=O)Cn4cc(C#N)cn4)CC[C@@H]32)C1 [Forms A and K]
Final Form after slurry conversion ([4]; Ethyl acetate, 50° C.): Form C

C[C@@]1(O)CC[C@H]2[C@H](CC[C@@H]3[C@@H]2CC[C@]2(C)[C@@H](C(=O)Cn4cc(C#N)cn4)CC[C@@H]32)C1 [Forms A, C and K]
Final Form after slurry conversion ([4]; MBTE, 50° C.): Form C
Final Form after slurry conversion ([4]; MBTE, RT): Form C
Final Form after slurry conversion ([4]; n-Butanol, 50° C.): Form C
Final Form after slurry conversion ([4]; n-Butanol, RT): Form C
